From patent US20110262365A1 (priority 2008, published 2011)

System: skin of the subject
Assay: Intradermal skin test for hypersensitivity to female reproductive hormones, case reports
Type: in vivo, human
Settings: for Skin test result, Case 2: person one; for Skin test result, Case 6 / Skin test result, Case 7 / Skin test result, Case 4 / Skin test result, Case 1 / Skin test result, Case 5: person; for Skin test result, Case 6: menopausal syndrome; for Skin test result, Case 6 / Skin test result, Case 7: severe hot flashes; for Skin test result, Case 7: menopause; for Skin test result, Case 4: recurrent habitual abortions and severe PMS; for Skin test result, Case 1: severe premenstrual headaches, insomnia, acne; for Skin test result, Case 5: premenopausal syndrome, severe hot flashes and night sweats
Description: The skin test included the use of three fractions of estrogen (E1, E2 and E3) and progesterone (P), along with suitable controls. Each hormone solution was intradermally administered at a volume of 20-160 μl.
Skin test method using estriol, estrone, estradiol and/or progesterone and monitoring the immediate, late and delayed immuno-reaction to the injected hormones
1. The hormones (Table 1) diluted in solvents (Table 2) and controls (Table 3) in the above described dosages were administered intradermally into subjects.
2. Timing of intradermal administration and evaluation of the skin reaction was dependent on the tested subject.
(i) In case of fertile woman: Intradermal administration of the hormones/controls initiated at the luteal phase of menstrual cycle;
Tracking (evaluation of skin reaction) was after 20 minutes, after 48 hours and daily during the next 30 day (or a complete menstrual cycle).
(ii) Other Cases (non-fertile subjects): Intradermal administration of the hormones/controls initiated at any time;
Tracking (evaluation of skin reaction) was after 20 minutes, after 48 hours and daily during the next 7 day.
3. Measurement of wheal diameter—The wheal is formed on the skin in response to the intradermal administration of the hormone. Since the wheal responses are rarely regular or circular the wheal diameter is calculated using the following formula I.
wheal diameter=(D+d)/2 Formula I: […]
where D is the maximum diameter and d is perpendicular diameter.
4. Comparison with the controls was as follows:
(i) In case of a negative reaction to histamine (wheal diameter smaller than 5 mm), the result indicates Familial Dysautonomia disease (the subject is advised to seek other treatment);
(ii) In case of a positive reaction to saline (wheal diameter equals or larger than 5 mm), the test should be repeated;
(iv) In case of a similar or smaller reaction (wheal diameter) as compared to solvent reaction, there is no sensitivity to the tested hormone and desensitization is optional;
(v) Exception—In case the skin reaction (wheal diameter) is larger than 20 mm, the subject should not be treated and is referred to testing of cancer, systemic auto-immune diseases and other serous diseases.
Following is a description of several cases of subjects which were diagnosed and treated according to the method of some embodiments of the invention. The concentrations of hormones used in the description of the following cases 1-7 and in Table 9 below were as follow:
E1 (Estrone)—3 mM (millimole/Liter); 0.811 grams/liter;
E2 —(estradiol)—1 mM (millimole/Liter); 0.3565 grams/liter;
E3 (estriol)—3 mM (millimole/Liter); 0.86514 grams/liter;
P (progesterone)—1 mM (millimole/Liter); 0.3144 grams/liter;

[1] = habitual abortions and severe PMS

Row | Compound | Skin test result, Case 2 [1] | Skin test result, Case 3 (person two, habitual abortions and severe PMS) | Skin test result, Case 6 | Skin test result, Case 7 | Skin test result, Case 4 | Skin test result, Case 1 (BMI=31) | Skin test result, Case 5 | Skin test result, Case 1 (BMI=31, listed as Progesterone)
1 | 17 beta Estradiol Valerate | positive delayed-type hypersensitivity reaction | delayed-type hypersensitivity reaction | Hypersensitivity (delayed type after 48 hours and 5 days) | delayed-type (after 48 hours and 6 days) hypersensitivity reaction | delayed-type hypersensitivity reaction | delayed-type hypersensitivity reaction | – | –
2 | C[C@]12CC[C@@H]3c4ccc(O)cc4CC[C@H]3[C@@H]1C[C@@H](O)[C@@H]2O [estriol, Estriol] | – | – | Hypersensitivity (delayed type after 48 hours and 5 days) | – | delayed-type hypersensitivity reaction | delayed-type hypersensitivity reaction | delayed-type hypersensitivity reaction (after 48 hours) | –
3 | CC(=O)[C@H]1CC[C@H]2[C@@H]3CCC4=CC(=O)CC[C@]4(C)[C@H]3CC[C@]12C [progesterone, Progesterone] | positive delayed-type hypersensitivity reaction | – | – | delayed-type (after 48 hours and 6 days) hypersensitivity reaction | delayed-type hypersensitivity reaction | – | delayed-type hypersensitivity reaction (after 48 hours) | delayed-type hypersensitivity reaction to estriol and estradiol, higher than to Progesterone
